From patent publication EP2837626A1, “Indolinone derivatives as GRK5 modulators” (Max-Planck-Gesellschaft zur Förderung der Wissenschaften …, priority 2013, dated 2015)

Each compound was assayed against T1, full length GRK5 (Homo sapiens, UniProt P34947) (assay: IC50 determination of compounds inhibiting GRK5 by ADP Glo Kinase Assay technology (Promega)). Settings: 20 nM GRK5, 18.7 µM ATP, 10 µM casein, 12 concentrations, triplicates, read-out: GRK5 IC50.
T1 construct: 6/2 fold concentrated full length GRK5 (Millipore, #14-714) in reaction buffer is added to each well; purchased Millipore 14-714
T1 sequence (P34947 whole entry): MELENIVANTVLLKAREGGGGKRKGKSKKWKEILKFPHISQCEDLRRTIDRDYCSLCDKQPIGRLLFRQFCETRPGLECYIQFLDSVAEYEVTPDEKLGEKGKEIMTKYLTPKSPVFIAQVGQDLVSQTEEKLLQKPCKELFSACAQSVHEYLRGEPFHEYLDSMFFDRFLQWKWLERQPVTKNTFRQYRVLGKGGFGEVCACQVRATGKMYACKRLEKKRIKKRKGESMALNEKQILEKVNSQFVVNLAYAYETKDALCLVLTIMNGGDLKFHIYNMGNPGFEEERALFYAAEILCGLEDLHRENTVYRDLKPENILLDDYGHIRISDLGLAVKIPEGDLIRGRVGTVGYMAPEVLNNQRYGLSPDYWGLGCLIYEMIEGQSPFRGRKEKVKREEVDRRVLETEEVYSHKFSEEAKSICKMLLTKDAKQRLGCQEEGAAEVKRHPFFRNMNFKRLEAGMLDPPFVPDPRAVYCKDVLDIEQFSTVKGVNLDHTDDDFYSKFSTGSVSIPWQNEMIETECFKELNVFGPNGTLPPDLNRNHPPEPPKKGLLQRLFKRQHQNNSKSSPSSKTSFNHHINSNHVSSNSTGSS
Type: biochemical

Compound | IC50
Cc1[nH]c(/C=C2\C(=O)Nc3ccc(C(=O)O)cc32)c(C)c1C(=O)NCCN1CCCC1 [Compound 2] | < 5 µM
CC[C@@H](NC(=O)c1ccc2c(c1)/C(=C/c1[nH]c(C)c(C(=O)NCCN3CCCC3)c1C)C(=O)N2)c1ccccc1 [Compound 6, (3Z)-3-({3,5-dimethyl-4-[(2-pyrrolidin-1-ylethyl)carbamoyl]-1H-pyrrol-2-yl}methylene)-2-oxo-N-[(1R)-1-phenylpropyl]indoline-5-carboxamide] | < 5 µM
CC[C@@H](NC(=O)c1ccc2c(c1)/C(=C/c1[nH]c(C)c(C(=O)N3CCN(C)CC3)c1C)C(=O)N2)c1ccccc1 [Compound 7, (3Z)-3-({3,5-dimethyl-4-[(4-methylpiperazin-1-yl)carbonyl]-1H-pyrrol-2-yl}methylene)-2-oxo-N-[(1R)-1-phenylpropyl]indoline-5-carboxamide] | 5 to 20 µM
CCC(NC(=O)c1ccc2c(c1)/C(=C/c1[nH]c(C)c(C(=O)NCCN3CCCC3)c1C)C(=O)N2)c1ccc(F)c(F)c1 (centres unmarked) [Compound 10, (3Z)-N-[1-(3,4-difluorophenyl)propyl]-3-({3,5-dimethyl-4-[(2-pyrrolidin-1-ylethyl)carbamoyl]-1H-pyrrol-2-yl}methylene)-2-oxoindoline-5-carboxamide] | < 5 µM
CCC(NC(=O)c1ccc2c(c1)/C(=C/c1[nH]c(C)c(C(=O)NCCN3CCCC3)c1C)C(=O)N2)c1cccc(Cl)c1 (centres unmarked) [Compound 11, (3Z)-N-[1-(3-chlorophenyl)propyl]-3-({3,5-dimethyl-4-[(2-pyrrolidin-1-ylethyl)carbamoyl]-1H-pyrrol-2-yl}methylene)-2-oxoindoline-5-carboxamide] | < 5 µM
CCC(NC(=O)c1ccc2c(c1)/C(=C/c1[nH]c(C)c(C(=O)NCCN3CCCC3)c1C)C(=O)N2)c1ccc(Cl)cc1 (centres unmarked) [Compound 13, (3Z)-N-[1-(4-chlorophenyl)propyl]-3-({3,5-dimethyl-4-[(2-pyrrolidin-1-ylethyl)carbamoyl]-1H-pyrrol-2-yl}methylene)-2-oxoindoline-5-carboxamide] | < 5 µM
Cc1[nH]c(/C=C2\C(=O)Nc3ccc(C(=O)N[C@H](C)c4ccccc4)cc32)c(C)c1C(=O)N1CCCCC1 [Compound 14, (3Z)-3-{[3,5-dimethyl-4-(piperidin-1-ylcarbonyl)-1H-pyrrol-2-yl]methylene}-2-oxo-N-[(1R)-1-phenylethyl]indoline-5-carboxamide] | < 5 µM
Cc1[nH]c(/C=C2\C(=O)Nc3ccc(C(=O)N[C@H](C)c4ccccc4)cc32)c(C)c1C(=O)N1CCN(C)CC1 [Compound 15, (3Z)-3-({3,5-dimethyl-4-[(4-methylpiperazin-1-yl)carbonyl]-1H-pyrrol-2-yl}methylene)-2-oxo-N-[(1R)-1-phenylethyl]indoline-5-carboxamide] | < 5 µM
COc1ccc([C@@H](C)NC(=O)c2ccc3c(c2)/C(=C/c2[nH]c(C)c(C(=O)N4CCN(C)CC4)c2C)C(=O)N3)cc1 [Compound 21, (3Z)-3-({3,5-dimethyl-4-[(4-methylpiperazin-1-yl)carbonyl]-1H-pyrrol-2-yl}methylene)-N-[(1R)-1-(4-methoxyphenyl)ethyl]-2-oxoindoline-5-carboxamide] | < 5 µM
Cc1ccc([C@@H](C)NC(=O)c2ccc3c(c2)/C(=C/c2[nH]c(C)c(C(=O)N4CCN(C)CC4)c2C)C(=O)N3)cc1 [Compound 32, (3Z)-3-({3,5-dimethyl-4-[(4-methylpiperazin-1-yl)carbonyl]-1H-pyrrol-2-yl}methylene)-N-[(1R)-1-(4-methylphenyl)ethyl]-2-oxoindoline-5-carboxamide] | < 5 µM
Cc1cccc(C(C)NC(=O)c2ccc3c(c2)/C(=C/c2[nH]c(C)c(C(=O)N4CCN(C)CC4)c2C)C(=O)N3)c1 (centres unmarked) [Compound 51, (3Z)-3-({3,5-dimethyl-4-[(4-methylpiperazin-1-yl)carbonyl]-1H-pyrrol-2-yl}methylene)-N-[1-(3-methylphenyl)ethyl]-2-oxoindoline-5-carboxamide] | 5 to 20 µM
